According to PMC2915651 (2010):

Assays:
[1] = tested on: [d(TGGGGT)]4 (DNA, G4) TGGGGT; experiment: ITC; conditions: 70 mM KCl; 20 mM phosphate, 0.1 mM EDTA, pH 7.0, 25 °C; identical sites, n = 2.0
[2] = tested on: d(CGCGAATTCGCG)2 (DNA, duplex) CGCGAATTCGCG; experiment: ITC; conditions: 70 mM KCl; 20 mM phosphate, 0.1 mM EDTA, pH 7.0, 25 °C; no resolvable isotherm; ligand 600–700 μM into 30 μM DNA
[3] = tested on: [d(TGGGGT)]4 (DNA, G4) TGGGGT; experiment: 1H NMR titration; conditions: 70 mM KCl; 10 mM phosphate, EDTA, pH 7.0, 25 °C; 2 mM quadruplex; fast exchange
[4] = tested on: d(CGCGAATTCGCG)2 (DNA, duplex) CGCGAATTCGCG; experiment: 1H NMR titration; conditions: 70 mM KCl; 10 mM phosphate, EDTA, pH 7.0, 25 °C; 1 mM DNA; shifts at most 0.03 ppm at 2:1

SMILES: Cn1cc(NC(=O)c2cc(NC(=O)CN=C(N)N)cn2C)cc1C(=O)NCCC(=N)N
- K b [1]: 1.2 ± 0.1 × 10^6 M^-1

SMILES: Cn1cc(NC(=O)c2cc(NC(=O)c3cc(N=CN)cn3C)cn2C)cc1C(=O)NCCC(=N)N
- K b [1]: 1.9 ± 0.2 × 10^6 M^-1
- binding [2]: weak
- binding [3]: yes
- binding [4]: weak
